pIC50: −log10 of the molar value. Several values for one entry are separate records, joined by “and”; a condition that tells them apart may be missing. Equal values may be shown once.

In the first test the target is T1, GRK2 (Homo sapiens, UniProt P25098).
T1 sequence (P25098 1-689): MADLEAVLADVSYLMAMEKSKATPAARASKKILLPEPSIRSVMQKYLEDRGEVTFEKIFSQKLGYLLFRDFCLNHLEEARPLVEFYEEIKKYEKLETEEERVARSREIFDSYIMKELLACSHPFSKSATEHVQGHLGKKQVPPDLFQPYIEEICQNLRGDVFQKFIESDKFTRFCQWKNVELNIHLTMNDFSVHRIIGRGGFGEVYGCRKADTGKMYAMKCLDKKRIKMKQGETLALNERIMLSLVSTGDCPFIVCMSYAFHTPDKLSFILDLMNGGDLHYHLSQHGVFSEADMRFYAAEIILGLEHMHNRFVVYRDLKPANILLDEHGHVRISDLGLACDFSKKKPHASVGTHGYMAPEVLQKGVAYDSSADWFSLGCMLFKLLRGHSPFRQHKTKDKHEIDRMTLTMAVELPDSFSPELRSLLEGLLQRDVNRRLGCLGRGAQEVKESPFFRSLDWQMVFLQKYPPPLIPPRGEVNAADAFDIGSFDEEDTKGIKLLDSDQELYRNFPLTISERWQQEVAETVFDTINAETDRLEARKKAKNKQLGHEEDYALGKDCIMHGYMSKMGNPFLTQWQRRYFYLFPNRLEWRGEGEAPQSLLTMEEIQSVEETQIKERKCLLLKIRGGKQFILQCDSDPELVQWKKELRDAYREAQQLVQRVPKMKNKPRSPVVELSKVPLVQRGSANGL
Nature of the test: hGRK2 LANCE Ultra In Vitro Assay. Format: biochemical.
Conditions: not given
In a few lines: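 TR-FRET kinase assay with 10 nM GRK2 preincubated 30 min with compound, then 200 nM ULight-peptide and 30 or 600 μM ATP in HEPES pH 7.5, 10 mM MgCl2, 1% DMSO; 120 or 60 min at ambient temperature respectively.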
Background: TR-FRET usually uses a lanthanide donor and a delayed reading to cut background.
In the case of `COc1cccc([C@@H](C)N2Cc3ccc(-c4cn[nH]c4)cc3C2=O)c1` [Compound 13, (R)-2-(1-(3-methoxyphenyl)ethyl)-6-(1H-pyrazol-4-yl)isoindolin-1-one], the pIC50 (in general, the IC50 on a negative log10 scale, so that one unit is a factor of ten) is > 8.30.

The same test, now with this note: Biological Example 1 GRK2 Lancer IC50 (μM), 10 nM GRK2; 30 or 600 μM ATP (not stated which); multiple measurements listed individually.
As to `COc1cccc(CN2C(=O)c3cc(-c4cn[nH]c4)ccc3C2CC#N)c1` (centres unmarked) [Compound 15], the IC50 (in general, the concentration that inhibits the measured activity by half) was 0.005 µM.

In the case of `CC(C)NC(=O)c1cccc(CN2Cc3ccc(-c4cn[nH]c4)cc3C2=O)c1` [Compound 19, N-isopropyl-3-[[1-oxo-6-(1H-pyrazol-4-yl)isoindolin-2-yl]methyl]benzamide], the IC50 is < 0.005 µM.

On to `COc1cccc(C(CO)N2Cc3ccc(-c4ccnc(N)n4)cc3C2=O)c1` (centres unmarked) [Compound 64, 6-(2-aminopyrimidin-4-yl)-2-(2-hydroxy-1-(3-methoxyphenyl)ethyl)isoindolin-1-one], for which the IC50 turned out to be 0.047 µM.

Turning to `CCOc1cccc([C@@H](C)N2Cc3ccc(-c4cn[nH]c4)cc3C2=O)c1` [Compound 29, 2-[(1R)-1-(3-ethoxyphenyl)ethyl]-6-(1H-pyrazol-4-yl)isoindolin-1-one], the 50% inhibitory concentration (IC50) worked out at 0.006 µM.

`Cc1cnccc1CNC(=O)c1cccc(CN2C(=O)c3cc(-c4cn[nH]c4)ccc3C23CCCC3)c1` [Compound 134, N-((3-methylpyridin-4-yl)methyl)-3-((3′-oxo-5′-(1H-pyrazol-4-yl)spiro[cyclopentane-1,1′-isoindolin]-2′-yl)methyl)benzamide] displayed a 50% inhibitory concentration (IC50) of 0.003 µM.

In the case of `CC(=O)Oc1cccc(CN2Cc3ccc(-c4cn[nH]c4)cc3C2=O)c1` [Compound 136], the IC50 was 0.014 µM.

In the case of `CCOc1cccc([C@H](C(=O)OC)N2Cc3ccc(-c4ccncc4)cc3C2=O)c1` [Compound 76], the half-maximal inhibitory concentration (IC50) is > 20 µM.

`COC(=O)[C@H](c1cccc(OC)c1)N1Cc2ccc(-c3cn[nH]c3)cc2C1=O` [Compound 72] showed an IC50 of 0.13 µM.

As for `COc1cccc(CN2C(=O)c3cc(-c4cn[nH]c4)ccc3C23CCOC3)c1` (centres unmarked) [Compound 75, 2′-(3-methoxybenzyl)-5′-(1H-pyrazol-4-yl)-4,5-dihydro-2H-spiro[furan-3,1′-isoindolin]-3′-one], the concentration for half-maximal inhibition (IC50) is 0.007 µM.

In turn, `CC(C)NC(=O)c1cccc(CN2Cc3cc(F)c(-c4cn[nH]c4)cc3C2=O)c1` [Compound 166] registered an IC50 of 0.005 µM.

`COc1cccc([C@@H](C)N2Cc3c(cc(-c4cn[nH]c4)cc3-c3ccc(C(C)(C)O)nc3)C2=O)c1` [Compound 141, (R)-4-(6-(2-hydroxypropan-2-yl)pyridin-3-yl)-2-(1-(3-methoxyphenyl)ethyl)-6-(1H-pyrazol-4-yl)isoindolin-1-one] showed a 50% inhibitory concentration (IC50) of 0.02 µM.

For the molecule `CC(=O)OCC(=O)Oc1cccc(CN2Cc3ccc(-c4cn[nH]c4)cc3C2=O)c1` [Compound 138], the half-maximal inhibitory concentration (IC50) worked out at 0.002 µM.

Molecule `COc1cccc([C@@H](C)N2Cc3c(cc(-c4cn[nH]c4)cc3-c3cccnc3)C2=O)c1` [Compound 124, (R)-2-(1-(3-methoxyphenyl)ethyl)-6-(1H-pyrazol-4-yl)-4-(pyridin-3-yl)isoindolin-1-one] registered an IC50 of 0.005 µM.

Another test has as its target T1, GRK2. Nature of the test: GRK2 Transcreener Assay. Format: biochemical. The following applies: Biological Example 2 GRK2 Transcreener IC50 (μM), 10 nM GRK2; 10 μM ATP; 150 μM peptide substrate; multiple measurements listed individually. As to the method: Positive and negative control wells received an equal volume of DMSO. The final DMSO concentration in the assay is 1%.
The plate was placed in centrifuge equipped with a spin-bucket rotor and spun for 1 min at 1000 rpm.
GRK2 enzymatic reactions were initiated with the addition of 2 μL/well of 50 nM GRK2 in assay buffer. Plates were centrifuged for 1 min at 1000 rpm. For negative control wells, the order of reagent addition was reversed: 10 μL/well ADP detection mix (see below) was added first, followed by the addition of 2 μL/well of the GRK2 solution. Reaction mixtures were incubated at ambient temperature for 2 hours. Final concentrations of reagents in the assays were as follows:
Following incubation, the reactions were quenched with 10 μL/well of the Transcreener ADP detection mix. […] The plates were then centrifuged for 1 min at 1000 rpm.
Fluorescence polarization values of the reaction mixtures were read on a Safire plate reader after a 60 min incubation at ambient temperature. Excitation wavelength=590 nm; emission wavelength=650 nm.
The fluorescence polarization data were converted to % activity as follows:
% activity=(sample−NC)/(PC−NC)*100
where NC is the mean of negative control (ADP detection mix added prior to GRK2 addition), and PC is the mean of positive control (GRK2 reaction without inhibitor). IC50 values are determined from a 4-parameter fit, using the following equation:
Y=Bottom+(Top−Bottom)/(1+10^((Log IC50−X)*Hill slope))
where X=log10 of the compound concentration.
For `COc1cccc(CN2Cc3ccc(-c4ccnc(N)n4)cc3C2=O)c1` [Compound 4], the IC50 was 0.08 µM.

As to `COc1cccc(CN2C(=O)c3cc(-c4cn[nH]c4)ccc3C23CC(O)C(O)C3)c1` (centres unmarked) [Compound 8, 3,4-dihydroxy-2′-(3-methoxybenzyl)-5′-(1H-pyrazol-4-yl)spiro[cyclopentane-1,1′-isoindolin]-3′-one], inhibition was half-maximal at 0.009 µM (IC50).

As for `COc1cccc(CN2C(=O)c3cc(-c4cn[nH]c4)ccc3C23CCNCC3)c1` [Compound 14, 2-(3-methoxybenzyl)-5-(1H-pyrazol-4-yl)spiro[isoindoline-1,4′-piperidin]-3-one], the IC50 is < 0.005 µM.

As to `O=C1c2cc(-c3cn[nH]c3)ccc2CN1Cc1cccc(F)c1` [Compound 16, 2-(3-Fluorobenzyl)-6-(1H-pyrazol-4-yl)isoindolin-1-one], the IC50 came out at 0.017 µM.

Molecule `COc1cccc(CN2C(=O)c3cc(-c4cn[nH]c4)ccc3C23CC=CC3)c1` [Compound 6, 2′-(3-methoxybenzyl)-5′-(1H-pyrazol-4-yl)spiro[cyclopentane-1,1′-isoindolin]-3-en-3′-one] came in with an IC50 of 0.01 µM.

The molecule `Cc1cccc([C@@H](C)N2Cc3ccc(-c4cn[nH]c4)cc3C2=O)n1` [Compound 25] gave an IC50 of 0.546 µM. Compared with the last molecule, the IC50 is about 55-fold higher.

In turn, `CS(=O)(=O)Nc1cccc(CN2Cc3ccc(-c4cn[nH]c4)cc3C2=O)c1` [Compound 9] registered an IC50 of 0.291 µM.

For `CS(=O)(=O)Nc1cccc(CN2Cc3ccc(-c4ccnc5[nH]ccc45)cc3C2=O)c1` [Compound 10], the half-maximal inhibitory concentration (IC50) stood at 0.719 µM.

As to `COC(=O)c1cccc([C@@H](C)N2Cc3ccc(-c4cn[nH]c4)cc3C2=O)c1` [Compound 165], the IC50 is > 50 µM.

As for `NCc1cccc(CN2Cc3ccc(-c4cn[nH]c4)cc3C2=O)c1` [Compound 22, 2-(3-(Aminomethyl)benzyl)-6-(1H-pyrazol-4-yl)isoindolin-1-one], the IC50 turned out to be 1.2 µM.

`COc1cccc([C@@H](C)N2Cc3ccc(-c4cn[nH]c4)cc3C2=O)c1` [Compound 13, (R)-2-(1-(3-methoxyphenyl)ethyl)-6-(1H-pyrazol-4-yl)isoindolin-1-one]: the IC50 is < 0.005 µM.

Take `COc1cccc(CN2C(=O)c3cc(-c4c[nH]nn4)ccc3C2(C)C)c1` [Compound 21, 2-(3-methoxybenzyl)-3,3-dimethyl-6-(1H-1,2,3-triazol-4-yl)isoindolin-1-one]: inhibition was half-maximal at 0.054 µM (IC50).

`CCOc1cccc(CN2Cc3ccc(-c4ccnc(N)n4)cc3C2=O)c1` [Compound 11] gave a 50% inhibitory concentration (IC50) of 0.383 µM.

With `COc1cccc(CN2C(=O)c3cc(-c4cn[nH]c4)ccc3C2CC#N)c1` (centres unmarked) [Compound 15], the IC50 was < 0.005 µM.

The molecule `COc1cccc(CN2C(=O)c3cc(-c4cn[nH]c4)ccc3C2(C)C)c1` [Compound 7, 2-(3-methoxybenzyl)-3,3-dimethyl-6-(1H-pyrazol-4-yl)isoindolin-1-one] came in with an IC50 of 0.005 µM.

With `CNC(=O)c1ccc(-c2ccc3c(c2)C(=O)N(Cc2cccc(OC)c2)C3)cn1` [Compound 23, 5-(2-(3-methoxybenzyl)-3-oxoisoindolin-5-yl)-N-methylpicolinamide], the 50% inhibitory concentration (IC50) was > 50 µM.

The molecule `C[C@H](c1cccc2ccccc12)N1Cc2ccc(-c3cn[nH]c3)cc2C1=O` [Compound 24] came in with a half-inhibitory concentration (IC50) of 1.46 µM.

On to `CCOc1cccc(CN2Cc3ccc(-c4cn[nH]c4)cc3C2=O)c1` [Compound 2, 2-(3-ethoxybenzyl)-6-(1H-pyrazol-4-yl)isoindolin-1-one], for which the IC50 was determined as 0.009 µM.

In the case of `CC(C)NC(=O)c1cccc(CN2Cc3ccc(-c4cn[nH]c4)cc3C2=O)c1` [Compound 19, N-isopropyl-3-[[1-oxo-6-(1H-pyrazol-4-yl)isoindolin-2-yl]methyl]benzamide], the half-inhibitory concentration (IC50) was < 0.005 µM.

For `CC(C)(C)OC(=O)c1cccc(CN2Cc3ccc(-c4cn[nH]c4)cc3C2=O)c1` [Compound 164], half-maximal inhibition (IC50) was put at 0.305 µM.

Molecule `COc1cccc(CN2Cc3ccc(-c4c[nH]nn4)cc3C2=O)c1` [Compound 20, 2-(3-methoxybenzyl)-6-(1H-1,2,3-triazol-4-yl)isoindolin-1-one] came in with an IC50 of 0.02 µM.

`COc1cccc(CN2Cc3ccc(-c4cn[nH]c4)cc3C2=O)c1` [Compound 1, 2-(3-methoxybenzyl)-6-(1H-pyrazol-4-yl)isoindolin-1-one]: the IC50 was < 0.005 µM and 0.005 µM.

`COc1cccc(CN2C(=O)c3cc(-c4ccnc(N)n4)ccc3C2(C)C)c1` [Compound 17, 6-(2-aminopyrimidin-4-yl)-2-(3-methoxybenzyl)-3,3-dimethylisoindolin-1-one] had a half-inhibitory concentration (IC50) of 0.048 µM.

`O=C(O)c1cccc(CN2Cc3ccc(-c4cn[nH]c4)cc3C2=O)c1` [Compound 18] returned a half-maximal inhibitory concentration (IC50) of 0.139 µM.

These data come from US20220009906A1, “ISOINDOLIN-1-ONE DERIVATIVES USEFUL AS GRK2 INHIBITORS” (priority 2020, published 2022).
